Holding throughout (assay type): functional
Experiment [1] relates to Eleusine coracana. The experiment is described as follows: Phytostimulatory activity in Eleusine coracana (finger mellet) seedlings assessed as vigour index at 1 g/L (reference value: 567 +/- 0.5 no unit).
Experiment [2] has as its system Eleusine coracana. The experiment is described as follows: Induction of seed germination in Eleusine coracana (finger mellet) at 20 g/L (reference value: 81 +/- 0.40%).
The test system of experiment [3] is Eleusine coracana. Briefly: Induction of seed germination in Eleusine coracana (finger mellet) at 40 g/L (reference value: 81 +/- 0.40%).
Experiment [4] deals with Eleusine coracana. Briefly: Induction of seed germination in Eleusine coracana (finger mellet) at 10 g/L (reference value: 81 +/- 0.40%).
Experiment [5] has as its system Eleusine coracana. Briefly: Induction of seed germination in Eleusine coracana (finger mellet) at 1 g/L (reference value: 81 +/- 0.40%).
For experiment [6], the system named is Pyricularia grisea. Briefly: Antifungal activity against Magnaporthe grisea infected finger millet seed assessed as fungal occurrence at 40 g/L after 1 week by stereoscopic analysis (reference value: 12.5 +/- 0.35%).
In experiment [7] the test system is Pyricularia grisea. Briefly: Antifungal activity against Magnaporthe grisea infected finger millet seed assessed as fungal occurrence at 20 g/L after 1 week by stereoscopic analysis (reference value: 12.5 +/- 0.35%).
In experiment [8] the test system is Pyricularia grisea. Briefly: Antifungal activity against Magnaporthe grisea infected finger millet seed assessed as fungal occurrence at 10 g/L after 1 week by stereoscopic analysis (reference value: 12.5 +/- 0.35%).
Experiment [9] deals with Pyricularia grisea. The experiment is described as follows: Antifungal activity against Magnaporthe grisea infected finger millet seed assessed as fungal occurrence at 1 g/L after 1 week by stereoscopic analysis (reference value: 12.5 +/- 0.35%).
Experiment [10] relates to Bipolaris setariae. Briefly: Antifungal activity against Bipolaris setariae infected finger millet seed assessed as fungal occurrence at 40 g/L after 1 week by stereoscopic analysis (reference value: 18 +/- 0.40%).
The subject of experiment [11] is Bipolaris setariae. The experiment is described as follows: Antifungal activity against Bipolaris setariae infected finger millet seed assessed as fungal occurrence at 20 g/L after 1 week by stereoscopic analysis (reference value: 18 +/- 0.40%).
The test system of experiment [12] is Bipolaris setariae. Briefly: Antifungal activity against Bipolaris setariae infected finger millet seed assessed as fungal occurrence at 10 g/L after 1 week by stereoscopic analysis (reference value: 18 +/- 0.40%).
Experiment [13] deals with Bipolaris setariae. The experiment is described as follows: Antifungal activity against Bipolaris setariae infected finger millet seed assessed as fungal occurrence at 1 g/L after 1 week by stereoscopic analysis (reference value: 18 +/- 0.40%).
Experiment [14] relates to Eleusine coracana. Briefly: Phytostimulatory activity in Eleusine coracana (finger mellet) seedlings assessed as vigour index at 20 g/L (reference value: 567 +/- 0.5 no unit).
Experiment [15] has as its system Eleusine coracana. The experiment is described as follows: Phytostimulatory activity in Eleusine coracana (finger mellet) seedlings assessed as vigour index at 40 g/L (reference value: 567 +/- 0.5 no unit).
Experiment [16] deals with Eleusine coracana. The experiment is described as follows: Phytostimulatory activity in Eleusine coracana (finger mellet) seedlings assessed as vigour index at 10 g/L (reference value: 567 +/- 0.5 no unit).

In the case of `O=C(c1ccccc1)c1cc(Cl)ccc1OCc1nnc(N2C(=O)C(Cl)C2c2cccc(Br)c2)o1` (stereo unspecified), the Vigour_index in experiment [1] is 544; in [14] it was 620; in [15], 641; in experiment [16], 585. For the same molecule, the Activity in [2] came to 83%; in experiment [3] it was 86%; in experiment [4], 83%; in [5] it was 81%; in [6], 3%; in [7], 4%. In addition, the Activity in experiment [8] was found to be 5%; in experiment [9] it was 6%; in experiment [10] it was 6%; in experiment [11] it was 7%; in [12], 10%; in [13], 11%.

For the molecule `Cc1ccc(C(=O)c2cc(C)ccc2OCc2nnc(N3C(=O)C(Cl)C3c3cccc(Br)c3)o2)cc1` (stereo unspecified), the Vigour_index was found to be 594 in experiment [1], 680 in experiment [14], 659 in experiment [15] and 633 in experiment [16]. Also, the Activity is reported as 86% in experiment [2]; 83% in experiment [3]; 82% in experiment [4]; 80% in experiment [5]; 1% in experiment [6]; 1.5% in experiment [7]. Moreover, the Activity stood at 4% in experiment [8]; 4% in experiment [9]; 1.5% in experiment [10]; 2.5% in [11]; 6% in experiment [12]; 14% in experiment [13].

`Cc1ccc(OCc2nnc(N3C(=O)C(Cl)C3c3cccc(Br)c3)o2)c(C(=O)c2ccc(Cl)cc2)c1` (stereo unspecified): the Vigour_index in experiment [1] is 588; in [14], 645; in experiment [15], 693; in [16] it was 611. For the same molecule, the Activity in [2] turned out to be 85%; in experiment [3], 87%; in [4], 85%; in [5], 81%; in [6] it was 2%; in experiment [7] it was 3%. Moreover, the Activity is given as 3% in experiment [8]; 4% in experiment [9]; 4.5% in [10]; 5% in [11]; 9% in experiment [12]; 11% in experiment [13].

In the case of `Cc1ccc(OCc2nnc(N3C(=O)C(Cl)C3c3cccc(Br)c3)o2)c(C(=O)c2cccc(Cl)c2)c1` (stereo unspecified), the Vigour_index in [1] was determined as 581; in experiment [14] it was 639; in experiment [15], 630; in experiment [16], 590. The Activity in experiment [2] was determined as 82%; in [3], 80%; in [4] it was 80%; in [5], 80%; in experiment [6] it was 4.5%; in experiment [7], 4.5%. Moreover, the Activity in [8] turned out to be 3.5%; in experiment [9], 5%; in [10], 6%; in experiment [11], 2.5%; in experiment [12] it was 4.5%; in experiment [13] it was 3.5%.

As to `O=C(c1ccccc1)c1ccc(Br)cc1OCc1nnc(N2C(=O)C(Cl)C2c2cccc(Br)c2)o1` (stereo unspecified), the Vigour_index in [1] came to 572; in [14], 655; in [15] it was 663; in experiment [16], 615. Also, the Activity is given as 86% in experiment [2]; 83% in experiment [3]; 86% in experiment [4]; 81% in [5]; 2.5% in experiment [6]; 3.5% in [7]. The Activity is reported as 3.5% in experiment [8]; 4% in experiment [9]; 2.5% in experiment [10]; 3.5% in [11]; 4.5% in experiment [12]; 13.5% in [13].

Regarding `COc1ccc(C(=O)c2cc(C)ccc2OCc2nnc(N3C(=O)C(Cl)C3c3cccc(Br)c3)o2)cc1` (stereo unspecified), the Vigour_index is 626 in [1], 706 in [14], 688 in experiment [15] and 658 in experiment [16]. Further, the Activity turned out to be 90% in experiment [2]; 84% in [3]; 88% in experiment [4]; 85% in experiment [5]; 1% in experiment [6]; 1% in [7]. In addition, the Activity was found to be 2.5% in experiment [8]; 3.5% in [9]; 2% in experiment [10]; 2% in [11]; 2.5% in experiment [12]; 3.5% in experiment [13].

Regarding `O=C(c1cccc(Cl)c1)c1cc(Cl)ccc1OCc1nnc(N2C(=O)C(Cl)C2c2cccc(Br)c2)o1` (stereo unspecified), the Vigour_index in experiment [1] is reported as 622; in [14], 711; in [15], 700; in experiment [16], 668. Moreover, the Activity in experiment [2] is on record as 89%; in [3], 90%; in [4], 86%; in experiment [5], 85%; in experiment [6], 0.5%; in experiment [7], 0.5%. In addition, the Activity in experiment [8] is 1%; in experiment [9], 2%; in experiment [10], 0.5%; in experiment [11], 0.5%; in experiment [12], 2%; in experiment [13], 2.5%.

For the molecule `Cc1cc(OCc2nnc(N3C(=O)C(Cl)C3c3cccc(Br)c3)o2)c(C(=O)c2ccccc2)cc1Cl` (stereo unspecified), the Vigour_index came out at 661 in [1], 715 in experiment [14], 656 in [15] and 677 in [16]. Moreover, the Activity came out at 89% in experiment [2]; 82% in experiment [3]; 86% in experiment [4]; 86% in [5]; 0% in [6]; 1% in [7]. Also, the Activity in experiment [8] is on record as 2%; in experiment [9], 3%; in experiment [10], 2%; in experiment [11], 2%; in experiment [12], 1%; in [13], 2%.

Turning to `Cc1ccc(OCc2nnc(N3C(=O)C(Cl)C3c3cccc(Br)c3)o2)c(C(=O)c2ccccc2Cl)c1` (stereo unspecified), the Vigour_index in experiment [1] was found to be 645; in [14], 754; in [15], 692; in experiment [16], 674. The Activity in experiment [2] was found to be 86%; in experiment [3] it was 89%; in [4] it was 84%; in experiment [5], 82%; in experiment [6], 1%; in experiment [7], 2%. Further, the Activity in experiment [8] is 3%; in [9], 3.5%; in [10], 2%; in experiment [11], 2%; in [12], 3.5%; in experiment [13] it was 4%.

In the case of `Cc1ccc(OCc2nnc(N3C(=O)C(Cl)C3c3cccc(Br)c3)o2)c(C(=O)c2ccccc2)c1` (stereo unspecified), the Vigour_index in [1] is 565; in experiment [14], 589; in [15] it was 620; in [16], 569. The Activity was 84% in [2]; 86% in experiment [3]; 81% in experiment [4]; 80% in experiment [5]; 2% in experiment [6]; 2.5% in experiment [7]. For the same molecule, the Activity in experiment [8] is 3.5%; in experiment [9] it was 12%; in experiment [10], 1%; in experiment [11], 4.5%; in experiment [12] it was 6%; in experiment [13] it was 15%.

Regarding `COC(=O)Nc1nc2ccccc2[nH]1` [CARBENDAZIM], the Vigour_index was determined as 567 in [1], 612 in experiment [14], 621 in [15] and 579 in [16]. The Activity was 85% in experiment [2]; 87% in experiment [3]; 84% in experiment [4]; 82% in experiment [5]; 1% in experiment [6]; 1% in [7]. Also, the Activity in experiment [8] was 1.5%; in [9], 1.5%; in experiment [10], 2%; in experiment [11], 2%; in experiment [12], 3%; in experiment [13], 3%.

The values above are taken from ChEMBL document CHEMBL3045297, “Synthesis and antifungal activity of 2-azetidinonyl-5-(2-benzoylphenoxy)methyl-1,3,4-oxadiazoles against seed-borne pathogens of Eleusine coracana (L.) Gaertn” (2009).
